Source: US20190045783A1, “SUBSTITUTED IMIDAZOLYLCARBOXAMIDES AS PESTICIDES” (BAYER CROPSCIENCE AKTIENGESELLSCHAFT, priority 2016, published 2019)
Like-named read-outs stand apart in the source and are kept apart here. Values belong to the compound of their own block, whether it stands above or below them.

Columns and labels:
[1] = log P by HPLC on reversed-phase column (C18), EEC directive 79/831 Annex V.A8; type: physicochemical; settings: for chromatographic logP: neutral range, pH 7.8, HPLC C18, 43° C.; for logP [n]: pH 7.8
[2] = tested on: green peach aphid (Myzus persicae); experiment: Myzus persicae spray test (Chinese cabbage leaf discs); type: in vivo; settings: for pest or weed control at 500 g/ha: Myzus persicae, foliar, read-out: efficacy in %
Procedure: (§1) Myzus persicae—Spray Test
To produce a suitable active ingredient formulation, 1 part by weight of active ingredient is dissolved with the stated parts by weight of solvent and made up with water containing an emulsifier concentration of 1000 ppm until the desired concentration is attained. To produce further test concentrations, the formulation is diluted with emulsifier-containing water.
After 5-6 days, the efficacy in % is determined. 100% means that all the aphids have been killed; 0% means that no aphids have been killed.

[3] = tested on: green peach aphids (Myzus persicae); experiment: Myzus persicae oral test; type: in vivo; settings: for pest or weed control at 20 ppm: Myzus persicae, 120 h, read-out: efficacy in %
Procedure: (§2) Solvent: 100 parts by weight of acetone
Subsequently, the plates are sealed with parafilm, which a mixed population of green peach aphids (Myzus persicae) within a second microtitre plate is able to puncture and imbibe the solution through it.
After 5 days, the efficacy in % is determined. 100% means that all the aphids have been killed; 0% means that no aphids have been killed.

[4] = tested on: green peach aphid (Myzus persicae); experiment: Myzus persicae spray test (MYZUPE), comparison with prior art; type: in vivo; settings: for Emax at 100 g/ha: Myzus persicae, read-out: % efficacy
Procedure: Myzus persicae—Spray Test (MYZUPE)
(§3) Emulsifier: alkylaryl polyglycol ether
(§4) After the desired period of time (dat), the efficacy in % is determined. 100% means that all the aphids have been killed; 0% means that no aphids have been killed.

[5] = tested on: green peach aphids (Myzus persicae); experiment: Myzus persicae oral test (MYZUPE O), comparison with prior art; type: in vivo; settings: for Emax at 4 ppm / Emax at 0.8 ppm: Myzus persicae, po, read-out: % efficacy
Procedure: Myzus persicae—Oral Test (MYZUPE O)
as §2
50 μl of the active compound preparation are transferred into microtitre plates and made up to a final volume of 200 μl with 150 μl of IPL41 insect medium (33%+15% sugar). Subsequently, the plates are sealed with parafilm, which a mixed population of green peach aphids (Myzus persicae) within a second microtitre plate is able to puncture and imbibe the solution through it.
as §4

[6] = tested on: caterpillars of the armyworm (Spodoptera frugiperda); settings: application rate 500 g/ha, after 7 days, maize leaf discs; 100% = all caterpillars killed
Procedure: Spodoptera Frugiperda—Spray Test
as §3
To produce further test concentrations, the formulation is diluted with emulsifier-containing water.
After 7 days, the efficacy in % is determined. 100% means that all the caterpillars have been killed; 0% means that no caterpillar has been killed.

[7] = tested on: larvae of the mustard beetle (Phaedon cochleariae); settings: application rate 500 g/ha, after 7 days, Chinese cabbage leaf discs; 100% = all beetle larvae killed
[8] = tested on: greenhouse red spider mite (Tetranychus urticae); experiment: Tetranychus urticae spray test, OP-resistant; type: in vivo; settings: application rate 500 g/ha, after 6 days, bean leaf discs; 100% = all spider mites killed
Procedure: Tetranychus urticae—Spray Test, OP-Resistant
After 6 days, the efficacy in % is determined. 100% means that all the spider mites have been killed; 0% means that no spider mites have been killed.

[9] = tested on: engorged adult female cattle ticks (Boophilus microplus); experiment: Boophilus microplus injection test; type: in vivo; settings: 20 μg/animal, assessed after 7 days, 100% = no tick laid fertile eggs
Procedure: Boophilus microplus—Injection Test
Solvent: dimethyl sulphoxide
To produce a suitable preparation of active compound, 10 mg of active compound are mixed with 0.5 ml of solvent and the concentrate is diluted with solvent to the desired concentration.
1 μl of the active compound solution is injected into the abdomen of 5 engorged adult female cattle ticks (Boophilus microplus). The animals are transferred into dishes and kept in a climate-controlled room.
Efficacy is assessed after 7 days by laying of fertile eggs. Eggs which are not visibly fertile are stored in a climate-controlled cabinet until the larvae hatch after about 42 days. An efficacy of 100% means that none of the ticks has laid any fertile eggs; 0% means that all the eggs are fertile.

[10] = tested on: green peach aphid (Myzus persicae); experiment: Myzus persicae spray test (bell pepper plants); type: in vivo; settings: application rate 20 ppm, after 6 days, 100% = all aphids killed
Procedure: as §1
Solvent: 14 parts by weight of dimethylformamide
as §3
If the addition of ammonium salts or/and penetrants is required, these are each added in a concentration of 1000 ppm to the formulation solution.
Bell pepper plants (Capsicum annuum) severely infested with the green peach aphid (Myzus persicae) are treated by spraying with the active compound formulation in the desired concentration.
After 6 days, the kill in % is determined. 100% means that all of the aphids have been killed; 0% means that none of the aphids have been killed.

[11] = application rate 500 g/ha, after 5-6 days, Chinese cabbage leaf discs, 100% = all aphids killed
[12] = application rate 20 ppm, after 5 days, oral, 100% = all aphids killed
[13] = 120 h, MYZUPE, 100 g of ai/ha, 5 dat
[14] = reversed-phase HPLC column (C18), Table 1, read-out: logP [n]
[15] = 120 h, MYZUPE O, 0.8 ppm, 5 dat

Compound: CCN(C(=O)c1cnc(C=NN(C)C(=O)OC)n1C)c1cccnc1 [I-1-045]
chromatographic logP ([1]; Table 1, read-out: logP [n]): 1.28
pest or weed control at 500 g/ha [2, 11]: 90%
pest or weed control at 20 ppm [3, 12]: 100%
Emax at 100 g/ha [4, 13]: 90%
Emax at 4 ppm ([5]; 120 h, MYZUPE O, 4 ppm, 5 dat): 100%

Compound: CCN(C(=O)c1cnc(C=O)n1C)c1cccnc1 [I-1-039]
logP [n] [1]: 0.97
efficacy in % [3, 12]: 100%
efficacy in % [6]: 83%
efficacy in % [7]: 100%

Compound: CN(C(=O)c1cnc(/C=N/OCc2ccc(Cl)cc2)n1C)c1cccnc1 [I-1-010]
logP [n] [1]: 2.43
efficacy in % [2, 11]: 90%
efficacy in % [8]: 90%
efficacy in % [3, 12]: 90%

Compound: CCn1c(C(=O)N(C)c2cccnc2)cnc1C(=O)N(C)C [I-1-074]
chromatographic logP [1, 14]: 0.86
pest or weed control at 500 g/ha [2, 11]: 100%
pest or weed control at 20 ppm [3, 12]: 90%
Emax at 100 g/ha [4, 13]: 90%
Emax at 0.8 ppm [5, 15]: 100%
Emax at 4 ppm ([5]; 120 h, MYZUPE O, 4 ppm, 5 dat): 100%

Compound: CN(C(=O)c1cnc(C(=O)NCc2ccccc2)n1C)c1cccnc1 [I-1-050]
chromatographic logP [1, 14]: 1.75
pest or weed control at 500 g/ha [2, 11]: 90%
pest or weed control at 20 ppm [3, 12]: 100%
Emax at 100 g/ha [4, 13]: 90%
Emax at 0.8 ppm [5, 15]: 90%
Emax at 4 ppm ([5]; 120 h, MYZUPE O, 4 ppm, 5 dat): 90%

Compound: CN(C(=O)c1cnc(/C=N/OC(C)(C)C)n1C)c1cccnc1 [I-1-037]
logP [n] [1]: 1.99
efficacy in % [2, 11]: 100%
efficacy in % [3, 12]: 100%
efficacy (laying of fertile eggs) [9]: 90%

Compound: CN(C(=O)c1cnc(C(=O)NS(C)(=O)=O)n1C)c1cccnc1 [I-1-070]
chromatographic logP [1, 14]: -0.2
pest or weed control at 20 ppm [3, 12]: 90%
Emax at 0.8 ppm [5, 15]: 100%

Compound: CN(C(=O)c1cnc(/C=N/OCC2CC2)n1C)c1cccnc1 [I-1-008, 2-[(E)-(Cyclopropylmethoxyimino)methyl]-N,1-dimethyl-N-(pyridin-3-yl)-1H-imidazole-5-carboxamide]
chromatographic logP ([1]; reversed-phase HPLC column (C18), preparation examples, read-out: log P[n]): 1.78
pest or weed control at 500 g/ha [2, 11]: 100%
efficacy in % [8]: 90%
pest or weed control at 20 ppm [3, 12]: 100%

Compound: CN(C(=O)c1cnc(/C=N/OCc2cccnc2)n1C)c1cccnc1 [I-1-024]
chromatographic logP [1, 14]: 1.24
pest or weed control at 20 ppm [3, 12]: 100%
Emax at 4 ppm ([5]; 144 h, MYZUPE O, 4 ppm, 6 dat): 90%

Compound: CCOC(=O)c1ncc(C(=O)N(C)c2cccnc2)n1C [I-1-025]
chromatographic logP [1, 14]: 1.1
pest or weed control at 500 g/ha [2]: 90%
pest or weed control at 20 ppm ([3]; po): 100%
Emax at 100 g/ha [4]: 90%
Emax at 0.8 ppm ([5]; 120 h): 90%
Emax at 4 ppm ([5]; 120 h): 100%

Compound: CCN(C(=O)c1cnc(C=NOC)n1C)c1cccnc1 [I-1-044]
chromatographic logP [1, 14]: 1.29
pest or weed control at 500 g/ha [2, 11]: 100%
Emax at 100 g/ha [4, 13]: 90%
Emax at 4 ppm ([5]; 120 h, MYZUPE O, 4 ppm, 5 dat): 100%

Compound: 2-(Ethylcarbamothioyl)-N,1-dimethyl-N-(pyridin-3-yl)-1H-imidazole-5-carboxamide [I-1-056]
logP [n] [1]: 1.42
efficacy in % [2, 11]: 100%
efficacy in % [3, 12]: 100%
% efficacy ([4]; MYZUPE, 100 g of ai/ha, 5 dat): 100%
% efficacy ([5]; MYZUPE O, 0.8 ppm, 5 dat): 100%
% efficacy ([5]; MYZUPE O, 4 ppm, 5 dat): 100%

Continued, in another order:

chromatographic logP [1, 14]: 0.73
Compound: CN(C(=O)c1cnc(C(=O)N2CCOCC2)n1C)c1cccnc1 [I-1-059]
pest or weed control at 500 g/ha [2, 11]: 100%
pest or weed control at 20 ppm [3, 12]: 100%
Emax at 100 g/ha [4, 13]: 100%
Emax at 4 ppm ([5]; 120 h, MYZUPE O, 4 ppm, 5 dat): 100%

chromatographic logP [1, 14]: 1.02
Compound: CN(C)C(=O)c1ncc(C(=O)N(c2cccnc2)C2CC2)n1C [I-1-083]
pest or weed control at 500 g/ha [2, 11]: 90%
pest or weed control at 20 ppm [3, 12]: 90%
Emax at 100 g/ha [4, 13]: 90%

chromatographic logP [1, 14]: 0.92
Compound: CN(C(=O)c1cnc(C2OCCCO2)n1C)c1cccnc1 [I-1-006]
kill in % (efficacy) [10]: 98%
pest or weed control at 20 ppm [3, 12]: 100%
Emax at 0.8 ppm [5, 15]: 100%
Emax at 4 ppm ([5]; 120 h, MYZUPE O, 4 ppm, 5 dat): 100%

logP [n] [1]: 1.68
Compound: CN(C(=O)c1cnc(/C=N/OCC(F)(F)F)n1C)c1cccnc1 [I-1-031]
efficacy in % [2, 11]: 90%
efficacy in % [3, 12]: 100%
efficacy (laying of fertile eggs) [9]: 80%

chromatographic logP [1, 14]: 0.78
Compound: CN(C(=O)c1cnc(C(=O)NCC#N)n1C)c1cccnc1 [I-1-076]
pest or weed control at 500 g/ha [2, 11]: 100%
efficacy in % [8]: 90%
pest or weed control at 20 ppm [3, 12]: 100%
Emax at 100 g/ha [4, 13]: 90%
Emax at 0.8 ppm [5, 15]: 90%
Emax at 4 ppm ([5]; 120 h, MYZUPE O, 4 ppm, 5 dat): 90%

chromatographic logP [1, 14]: 0.6
Compound: CN(C)C(=O)c1ncc(C(=O)N(C)c2cccnc2)n1C [I-1-033]
pest or weed control at 500 g/ha [2, 11]: 100%
pest or weed control at 20 ppm [3, 12]: 100%
Emax at 100 g/ha [4, 13]: 90%
Emax at 0.8 ppm [5, 15]: 100%
Emax at 4 ppm ([5]; 120 h, MYZUPE O, 4 ppm, 5 dat): 100%

chromatographic logP [1, 14]: 1.82
Compound: CN(C(=O)c1cnc(C(=O)Nc2ccccc2)n1C)c1cccnc1 [I-1-047]
pest or weed control at 500 g/ha [2, 11]: 100%
pest or weed control at 20 ppm [3, 12]: 100%
Emax at 100 g/ha [4, 13]: 90%
Emax at 4 ppm ([5]; 120 h, MYZUPE O, 4 ppm, 5 dat): 100%
